In patent publication US20110306071A1, “Compositions and Methods for Identifying Substrate Specificity of Inhibitors of Gamma Secretase” (ELAN PHARMACEUTICALS, INC., priority 2007, published 2011):

Tests used:
[1] = test system: gamma secretase (secreted Aβ40 and Aβ42); test: Aβ sandwich ELISA of media from C99GVP or APP transfected HEK cells treated with inhibitors; assay type: cell-based, Human
Experimental: Inhibitor Treatment of Transfected HEK Cell: The transition state analogue gamma secretase inhibitor-L685,458 (Sigma) and the peptidomimetic inhibitor-DAPT (Dovey, H. F., et al., J Neurochem., 2001; 76:173-181) were dissolved in DMSO to make 20 mM stocks. Similarly, a number of Elan's series of sulfonamide inhibitors were prepared and used as described herein (see, also FIGS. 11-14). Inhibitors were added to cell cultures (e.g., HEK) at the indicated final concentration, and the treated cells were harvested 48 h post-transfection. The metallo-proteinase inhibitor TAPI-1 (Calbiochem) was used at a final concentration of 40 μM. The Aβ-degrading enzyme inhibitors, Bacitracin (Calbiochem) and phosphoramidon (Calbiochem) were used at final concentration of 1 mg/ml and 40 μM, respectively. All inhibitor experiments were performed in triplicate and repeated at least three times.
ELISAs used to quantify different Aβ species were performed using standard techniques as described above and in (Johnson-Wood, K., et al., Proc. Natl. Acad. Sci. U.S.A., 1997; 94: 1550-1555, incorporated by reference). The Aβ40 and Aβ42 peptides in the samples were captured onto 2G3 or 21F12 antibody coated plates, respectively, and detected with a biotinylated 2H3 antibody. The fluorescence signal generated from a streptavidin-alkaline phosphatase conjugate (Roche) was measured with a CytoFlour microplate reader (Applied Biosystems). Synthetic Aβ40 or Aβ42 peptides (Anaspec) were used to generate standard curves (FIG. 10). All measurements were done in triplicate.
Next, Aβ generation was characterized from C99GVP. Wild type HEK cells and the mock-transfection control secreted little Aβ into the conditioned media (FIG. 5D, lane 1). In contrast, transient expression of C99GVP led to robust Aβ production, as measured by IP/Western blot (FIG. 5D) and ELISAs that detect Aβ 40 and Aβ42 species, respectively ([…], top panel). […] Finally, we compared the Aβ-lowering potency of two inhibitors, using either C99GVP or the wild type APP as substrate. As determined by ELISA, the respective IC50 values for the two substrates are essentially identical (FIG. 5E).

[2] = biological target: T1, gamma secretase γ and ε cleavage of Fas-APPsw-DD (Homo sapiens, UniProt P49768); test: Concurrent Aβ and AICD ELISA in Fas-APPsw-DD transfected 293 cells (APP γ versus ε cleavage); assay type: cell-based
T1 construct: active gamma secretase is endogenously and constitutively produced by the cell cultures; endogenous in cells; host or cells: HEK 293, transfected with Fas-APPsw-DD
Experimental: Polyclonal antibody AICD ELISA. HEK 293 cells were grown under standard conditions to ˜90% confluence. Cells were harvested, counted, and subsequently plated onto PDL-coated 60 mm dishes at 2×10^6 cells/dish in 5 mL media. The cells were allowed to settle onto the dishes for ˜4 hours. Transfection of various construct into cells was performed using standard techniques using Lipofectamine 2000™ (LF2K) (Invitrogen). Briefly, 2 μg plasmid DNA and 4 μL LF2K were diluted into separate 150 μL aliquots of Opti-MEM (Gibco), and allowed to stand for 10-15 minutes. The two aliquots were then mixed, and the DNA:Lipid complex allowed to form for about 20 minutes. The 300 μL DNA:Lipid complex was then added to the cells in 3 mL fresh media, and incubated overnight. In order to administer potential or known gamma secretase inhibitor compounds to cells, the transfected cells were harvested, replated into PDL-coated 24-well plates at 200,000 cells/well, and allowed to settle onto the plates for ˜4 hours. Cells were washed, and 500 μL fresh media added. […]
The term ‘non-selective’ in this instance refers to lack of selectivity for cell Aβ over Notch signaling (or GammaAPP over GammaNotch). […] The calculated γ/ε selectivity of the non-selective compounds (FIG. 11 and Table I) were 0.7, 1.1, 1.8 and 1.9 for DAPT, 44989, 46719 and the Merck compound, respectively. […]

[3] = biological target: T2, gamma secretase cleavage of C99GVP (AICD-GVP) (Homo sapiens, UniProt P49768); test: Luciferase reporter gene assay, AICD-GVP transactivation from C99GVP in HEK293 cells; assay type: cell-based; conditions: C99-GVP, FIG. 5C
T2 construct: active gamma secretase is endogenously and constitutively produced by the cell cultures; endogenous in cells; host or cells: HEK 293, co-transfected with C99GVP, pG5E1B-luc and pCMV-β-gal
Experimental: Luciferase Reporter Gene Assay: Luciferase reporter assays were carried out 48 hr post-transfection. Cells seeded on 96-well plates (BD Biosciences) were washed once with PBS and harvested in 20 μl of reporter lysis buffer (Promega) per well. After adding 100 μl of luminescent substrate (Promega), the luciferase activity was measured with a MicroLumatPlus microplate luminometer (Berthold Technologies). The β-galactosidase activity was measured similarly, using a luminescent β-galactosidase substrate (BD Biosciences). As a control for transfection efficiency and general effect on transcription, the luciferase activity was normalized by measuring β-galactosidase activity on a duplicate plate. All measurements were done in triplicate and repeated at least three times.
Luciferase Assay. After confirming AICD-GVP generation in HEK cells, its ability to transactivate a luciferase reporter gene that contains Gal4 response elements in the upstream activation sequence (UAS) was tested. […] Some residual luciferase activity remained in the presence of excess gamma secretase inhibitors, even though identical treatment completely abolished AICD production as measured by Western blot (FIG. 5B). […]

[4] = test system: gamma secretase; test: Aβ production from C99GVP and mutant or chimeric substrates in transfected HEK cells (ELISA, IP/Western blot); assay type: cell-based, Human; conditions: for effect on secreted Aβ / Aβ production compared with C99GVP control: FIGS. 8C, 8D, 9B, 9C; for drop of Aβ40: Aβ40 ELISA, FIG. 9C; for reduction in total Aβ: IP/Western blot densitometry, FIG. 9B
Source text: Plasmid Construction of JMD Chimeric Substrates: A pcDNA3.1-C99 plasmid similar to the previously described SPA4CT-LE construct (Dyrks, et al., FEBS Lett., 1992; 309: 20-24) was generated by standard PCR techniques. The APP signal peptide was fused to the N-terminus of the C99 fragment via a dipeptide leucine-glutamic acid (LE) linker. The strategy used to generate the pcDNA3.1-C99GVP construct was similar to a previously described method (Karlstrom, H., et al., J. Biol. Chem., 2002; 277: 6763-6766). (See, generally, FIG. 3). Briefly, an AscI site was introduced immediately 3′ of the nucleotides encoding the triple-lysine (K) membrane anchor of C99, where the GVP coding sequence was subsequently inserted in frame (to the C-terminal side of the lysine membrane anchor sequence of C99). […] All three chimeras were constructed by using a two-stage PCR method with two pairs of overlapping primers (for list of primers, see Table I). These chimeric substrates were characterized to assess activity as gamma secretase substrates and subsequent production and secretion of Aβ and AICD (FIGS. 6-7). […] The C99GVP-SLSS quadruple JMD chimera was also constructed with the same PCR method. Point mutations within the luminal juxtamembrane domain (i.e., C99GVP-G25S, S26L, N27S and K28S; FIGS. 2 and 9A-D) were generated using QuikChange (Stratagene) site-directed mutagenesis kit according to the manufacturer's instructions. All cDNAs were verified by sequencing. The Aβ and Aβ-like peptides generated from C99GVP and the various chimeric substrates were numbered with reference to the first N-terminal residue (Asp-1) of the Aβ peptide.
Cell Culture and Transient Transfection: Human embryonic kidney 293 (HEK 293) cells (ATCC) were grown in Dulbecco's Modified Eagle Medium with High Glucose (DMEM, obtained from Gibco/Invitrogen, Cat #11960) supplemented with 10% fetal bovine serum (Hyclone, SV 30014.03) and 50 units/ml penicillin and streptomycin (37° C., 5% CO2). Cells were used at less than passage number 30. At the time of seeding, viability of cells was greater than 95% as determined using a Vi-Cell Analyzer (Beckman-Coulter). Confluence of cells on plates was kept at greater than 95% during all phases of the experiment as determined with a standard tissue culture inverted microscope. All transfections were carried out on 5×10^6 cells in 6-well tissue culture plates (Costar). The following 3 plasmids: pG5E1B-luc, 200 ng (gift from R. Maurer, OHSU); pCMV-β-gal, 100 ng (gift from R. Maurer, OHSU); C99GVP or the various chimeric constructs, 200-400 ng were added together to each well. FuGENE6 reagent (Roche Cat. #11-814443001) was used according to manufacturer's protocol for the transient transfection of adherent cells. Transfected cells were reseeded onto 12 well (2×10^6 cells) and/or 96-well (5×10^4 cells) plates (Costar) 16 h post-transfection; fresh media was added either with or without gamma secretase inhibitors. The cells and conditioned media were harvested 48 h post-transfection for analysis.
Immunoprecipitation (IP) and Western Blot Detection of Aβ: Total Aβ peptides in conditioned medium or cell lysate were immuno-precipitated at 4° C. overnight with 4 μg of the 2H3 antibody, followed by incubation with 50 μl of a 50% protein G-Sepharose (GE Healthcare) slurry for 1 hr and three washes in the same lysis buffer as described above in the Western Blot discussion. Proteins were eluted from the solid-phase immunoprecipitates in Laemmli sample buffer by heating at 70° C. for 5 min and resolved on 10-20% Tris-Tricine SDS-PAGE or the modified Tris-Tricine/8M urea gels (Qi-Takahara, Y., et al., J Neurosci. (2005; 25, 436-445). After transferring onto nitrocellulose membranes (Invitrogen), the membranes were heated to 98° C. for 5 min in PBS, immunostained with the 2H3 antibody and visualized with Super-signal West Pico chemiluminescent substrate (Pierce). Each experiment was repeated at least three times. […]

Question: What does the source list for CC(C)C[C@H](NC(=O)[C@H](Cc1ccccc1)C[C@@H](O)[C@H](Cc1ccccc1)NC(=O)OC(C)(C)C)C(=O)N[C@@H](Cc1ccccc1)C(N)=O [L-685,458]?
Answer: secreted Aβ (Aβ40 and Aβ42) ([1]; 5 μM, 24 h, FIG. 5D): block secreted Aβ; Aβ potency (IC50) with C99GVP versus native APP substrate ([1]; FIG. 5E): equal Aβ potency; γ/ε selectivity = IC50 AICD/IC50 Aβ [2]: 1.9; luciferase reporter transactivation by AICD-GVP [3]: block luciferase reporter transactivation

Question: How did the “effect on secreted Aβ / Aβ production compared with C99GVP control” value [4] turn out when “C99GVP-APLP2*: APLP2 JMD swap chimera of C99GVP retaining the pre-TMD GSNK motif of APP (SEQ ID NO:19) (LEDAEFRHDSGLEEERESVGPLREDFGSNKGAIIGLMVGGVVIATVIVITLVML)” was run?
Answer: indistinguishable from the C99GVP control

Question: With “C99GVP-K28S: C99GVP point mutant K28S in the GSNK motif (SEQ ID NO:46) (LEDAEFRHDSGYEVHHQKLVFFAEDVGSNSGAIIGLMVGGVVIATVIVITLVML)” as the molecule, how does the “drop of Aβ40” value ([4]; versus C99GVP) read?
Answer: ~90%

Question: What about the “reduction in total Aβ” value ([4]; versus C99GVP) of the same molecule?
Answer: ~90%

Question: For “C99GVP-S26L: C99GVP point mutant S26L in the GSNK motif (SEQ ID NO:44) (LEDAEFRHDSGYEVHHQKLVFFAEDVGLNKGAIIGLMVGGVVIATVIVITLVML)”, which “drop of Aβ40” value ([4]; versus C99GVP) is on record?
Answer: 52.7±2.3%

Question: What about the “reduction in total Aβ” value ([4]; versus C99GVP) of the same molecule?
Answer: 65.7±8.5%

Question: “G25S: C99GVP point mutant G25S in the GSNK motif (SEQ ID NO:43) (LEDAEFRHDSGYEVHHQKLVFFAEDVSSNKGAIIGLMVGGVVIATVIVITLVML)” was tested. Which “effect on secreted Aβ / Aβ production compared with C99GVP control” value [4] did it give?
Answer: no obvious effect

Question: With “N27S: C99GVP point mutant N27S in the GSNK motif (SEQ ID NO:45) (LEDAEFRHDSGYEVHHQKLVFFAEDVGSSKGAIIGLMVGGVVIATVIVITLVML)” as the molecule, how does the “effect on secreted Aβ / Aβ production compared with C99GVP control” value [4] read?
Answer: no obvious effect

B1: C99GVP-SLSS: C99GVP in which the GSNK motif was substituted with SLSS from APLP2 (SEQ ID NO:51) (protein)
chain: DAEFRHDSGYEVHHQKLVFFAEDVSLSSGAIIGLMVGGVVIATVIVITLVMLKKKKLLSSIEQACDICRLKKLKCSKEKPKCAKCLKNNWECRYSPKTKRSPLTRAHLTEVESRLERLEQLFLLIFPREDLDMILKMDSLQDIKALLTGLFVQDNVNKDAVTDRLASVETDMPLTLRQHRISATSSSEESSNKGQRQLTVSGIPGDLAPPTDVSLGDELHLDGEDVAMAHADALDDFDLDMLGDGDSPGPGFTPHDSAPYGALDMADFEFEQMFTDALGIDEYGGQYTSIHHGVVEVDAAVTPEERHLSKMQQNGYENPTYKFFEQMQN
Question: With B1 as the molecule, how does the “reduction in secreted Aβ” value ([4]; versus C99GVP, FIGS. 9B and 9C) read?
Answer: ~97%
